Test results from patent US20230189805A1, “MULTI-SOLVENT INSECTICIDAL COMPOSITIONS INCLUDING SULFOXIMINE” (CLARKE MOSQUITO CONTROL PRODUCTS, INC., priority 2020, published 2023).

System: Culex sp. mosquitos
Assay: Laboratory test of samples with and without surfactant against Culex sp. mosquitos
Format: in vivo
Protocol: Various amounts of different surfactants were evaluated to determine possible impacts on efficacy. In one set of trials, different amounts of sulfoxaflor were tested with and without a surfactant (Pluronic L92 from BASF).

[1] = sulfoxaflor 0.5 wt.%, surfactant (Pluronic L92) 20 wt.%
[2] = sulfoxaflor 0.5 wt.%, surfactant None
[3] = sulfoxaflor 1 wt.%, surfactant None

Which 1-hour knockdown [1] does the source give for CC(c1ccc(C(F)(F)F)nc1)S(C)(=O)=NC#N (centres unmarked) [Sulfoxaflor, sulfoxaflor] here?
The 1-hour knockdown was 2%.

And the 24 hour mortality [1]?
Its 24 hour mortality is 64%.

And the 48 hour mortality [1]?
The 48 hour mortality was 92%.

And the 1-hour knockdown [2]?
The 1-hour knockdown was 0%.

What about the 24 hour mortality [2] of the same compound?
Its 24 hour mortality is 27%.

What about the 48 hour mortality [2] of the same compound?
The 48 hour mortality was 76%.

What about the 72 hour mortality [2] of the same compound?
Its 72 hour mortality is 86%.

What about the 1-hour knockdown [3] of the same compound?
Its 1-hour knockdown is 18%.

And the 24 hour mortality [3]?
The 24 hour mortality was 62%.

And the 48 hour mortality [3]?
The 48 hour mortality was 94%.

What about the 72 hour mortality [3] of the same compound?
Its 72 hour mortality is 98%.
